This is an account of results in ChEMBL document CHEMBL6092226, “Tilting the Scales toward EGFR Mutant Selectivity: Expanding the Scope of Bivalent "Type V" Kinase Inhibitors” (J Med Chem, 2024).

Each structure is given as a SMILES string.

The test system of data set [1] is BaF3. Briefly: Antiproliferative activity against mouse BaF3 cells harboring EGFR exon 19del mutant incubated for 72 hrs by MTT assay. To be noted: BaF3, 72 h. It is filed as functional, cell-based.
For data set [2], the system named is BaF3. Briefly: cells. To be noted: Mus musculus, BaF3, 72 h.
The test system of data set [3] is BaF3. Briefly: cells. The settings on record: Mus musculus, BaF3, 72 h. This is another data set of the same source.
Data set [4] deals with BaF3. Briefly: cells. The settings on record: Mus musculus, BaF3, 72 h. The source holds these as a separate data set.
In data set [5] the test system is BaF3. It is filed as functional, cell-based. To be noted: Mus musculus, BaF3, 72 h.
The target of data set [6] is T1, Epidermal growth factor receptor (Homo sapiens, UniProt P00533, C797S/L858R/T790M). Further details: species or system Sf9.
T1 sequence (P00533 25-1210 T790M/C797S/L858R limits assumed): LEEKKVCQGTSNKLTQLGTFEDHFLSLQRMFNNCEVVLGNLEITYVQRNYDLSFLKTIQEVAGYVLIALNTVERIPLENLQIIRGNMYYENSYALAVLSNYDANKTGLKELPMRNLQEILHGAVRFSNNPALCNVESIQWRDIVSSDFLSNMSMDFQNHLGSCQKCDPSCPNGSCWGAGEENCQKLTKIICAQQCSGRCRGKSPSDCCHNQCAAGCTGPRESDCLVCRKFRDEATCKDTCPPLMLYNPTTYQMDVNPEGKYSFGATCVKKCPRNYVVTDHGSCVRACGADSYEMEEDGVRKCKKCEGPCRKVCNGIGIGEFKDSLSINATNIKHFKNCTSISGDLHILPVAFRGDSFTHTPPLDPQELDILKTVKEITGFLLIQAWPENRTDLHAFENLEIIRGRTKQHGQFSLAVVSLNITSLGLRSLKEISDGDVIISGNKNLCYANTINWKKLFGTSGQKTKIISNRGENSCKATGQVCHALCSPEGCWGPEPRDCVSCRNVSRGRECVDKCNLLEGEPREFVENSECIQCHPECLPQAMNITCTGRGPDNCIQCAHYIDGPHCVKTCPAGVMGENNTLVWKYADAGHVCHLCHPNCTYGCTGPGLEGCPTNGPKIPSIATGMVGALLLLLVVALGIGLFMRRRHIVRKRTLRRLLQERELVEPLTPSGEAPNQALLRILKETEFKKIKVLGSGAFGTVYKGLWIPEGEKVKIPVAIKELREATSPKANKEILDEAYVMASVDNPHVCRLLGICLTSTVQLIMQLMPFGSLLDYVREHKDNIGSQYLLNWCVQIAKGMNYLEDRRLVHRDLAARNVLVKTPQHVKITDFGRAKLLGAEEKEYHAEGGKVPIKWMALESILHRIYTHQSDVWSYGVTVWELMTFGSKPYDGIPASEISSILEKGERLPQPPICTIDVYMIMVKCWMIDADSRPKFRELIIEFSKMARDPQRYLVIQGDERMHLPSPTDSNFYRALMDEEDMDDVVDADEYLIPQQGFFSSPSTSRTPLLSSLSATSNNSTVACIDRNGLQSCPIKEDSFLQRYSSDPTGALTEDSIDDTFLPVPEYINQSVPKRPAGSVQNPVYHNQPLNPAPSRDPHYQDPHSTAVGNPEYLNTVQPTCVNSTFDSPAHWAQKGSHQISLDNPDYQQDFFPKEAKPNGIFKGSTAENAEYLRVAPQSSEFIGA
Data set [7] is described as follows: Metabolic stability in pooled male human liver microsomes at 150 uM measured after 2 hrs in presence of NADPH regenerating system by LC-MS analysis. The data set is classed as ADME, Microsome.
Data set [8] in a line: Drug metabolism in pooled male human liver microsomes assessed as thioether oxidation mediated metabolite formation at 150 uM measured after 2 hrs by LC-MS analysis. It is filed as ADME, Microsome.
The next data set can be described thus: cells. The settings on record: Homo sapiens, NCI-H1975, 72 h.
The next data set has as its system HCC827. Briefly: cells. The settings on record: Homo sapiens, HCC827, 72 h.
Data set [9] addresses T2, Epidermal growth factor receptor (Homo sapiens, UniProt P00533). Briefly: Time-dependent irreversible inhibition of N-terminal GST-tagged wildtype human EGFR cytoplasmic domain (669 to 1210 residues) extracted from Sf21 insect cells assessed as apparent inactivation constant (Ki) incubated for 240 mins in presence of ATP by fluorescence based analysis. To be noted: read-out: Ki(app).

Data set [10] addresses T3, Epidermal growth factor receptor (Homo sapiens, UniProt P00533, L858R). Briefly: Time-dependent irreversible inhibition of GST-tagged EGFR L858R mutant cytoplasmic domain (669 to 1210 residues) (unknown origin) assessed as apparent inactivation constant (Ki) incubated for 240 mins in presence of ATP by fluorescence based analysis. The settings on record: read-out: Ki(app).

The target of data set [11] is T4, Epidermal growth factor receptor (Homo sapiens, UniProt P00533, L858R/T790M). Briefly: Time-dependent irreversible inhibition of GST-tagged EGFR L858R/T790M mutant cytoplasmic domain (669 to 1210 residues) (unknown origin) assessed as apparent inactivation constant (Ki) incubated for 240 mins in presence of ATP by fluorescence based analysis. To be noted: read-out: Ki(app).
T4 sequence (P00533 25-1210 T790M/L858R limits assumed): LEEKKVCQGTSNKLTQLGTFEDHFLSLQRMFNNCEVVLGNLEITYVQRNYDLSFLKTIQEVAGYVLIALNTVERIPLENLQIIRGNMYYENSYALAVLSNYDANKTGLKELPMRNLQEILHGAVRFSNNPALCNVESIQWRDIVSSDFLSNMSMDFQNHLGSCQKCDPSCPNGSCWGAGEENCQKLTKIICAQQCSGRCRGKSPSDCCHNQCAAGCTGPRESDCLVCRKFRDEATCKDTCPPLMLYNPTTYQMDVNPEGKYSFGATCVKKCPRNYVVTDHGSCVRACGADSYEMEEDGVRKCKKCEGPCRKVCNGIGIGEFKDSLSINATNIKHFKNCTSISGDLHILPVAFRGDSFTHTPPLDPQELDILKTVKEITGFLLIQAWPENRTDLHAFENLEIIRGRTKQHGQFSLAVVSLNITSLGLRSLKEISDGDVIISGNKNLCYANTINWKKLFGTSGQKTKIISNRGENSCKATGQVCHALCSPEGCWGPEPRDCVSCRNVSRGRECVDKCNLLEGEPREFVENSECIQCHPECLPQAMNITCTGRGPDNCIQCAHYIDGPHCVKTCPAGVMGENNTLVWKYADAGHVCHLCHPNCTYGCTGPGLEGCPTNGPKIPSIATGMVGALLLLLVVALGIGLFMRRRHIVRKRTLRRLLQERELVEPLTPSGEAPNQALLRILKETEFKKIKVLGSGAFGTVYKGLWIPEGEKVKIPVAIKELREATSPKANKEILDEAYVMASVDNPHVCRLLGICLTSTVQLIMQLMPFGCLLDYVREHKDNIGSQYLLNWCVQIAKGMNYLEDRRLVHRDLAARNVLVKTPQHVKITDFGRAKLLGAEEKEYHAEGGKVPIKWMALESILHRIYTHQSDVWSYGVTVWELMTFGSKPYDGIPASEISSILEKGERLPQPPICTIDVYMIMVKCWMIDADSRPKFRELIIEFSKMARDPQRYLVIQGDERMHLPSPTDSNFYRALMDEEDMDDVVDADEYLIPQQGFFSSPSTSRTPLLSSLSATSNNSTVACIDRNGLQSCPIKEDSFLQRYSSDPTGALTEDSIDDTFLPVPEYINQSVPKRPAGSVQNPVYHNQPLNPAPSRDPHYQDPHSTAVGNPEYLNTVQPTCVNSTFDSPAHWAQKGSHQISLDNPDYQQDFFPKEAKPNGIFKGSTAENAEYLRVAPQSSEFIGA

In data set [12] the target is T2, Epidermal growth factor receptor. Briefly: Reversible inhibition of wildtype EGFR (696 to 1022 residues) (unknown origin) extracted from baculovirus infected Sf9 insect cells in presence of ATP by HTRF assay.
In data set [13] the target is T3, Epidermal growth factor receptor. Briefly: Reversible inhibition of EGFR L858R mutant (696 to 1022 residues) (unknown origin) extracted from baculovirus infected Sf9 insect cells in presence of ATP by HTRF assay.
Data set [14] deals with T4, Epidermal growth factor receptor. Briefly: Reversible inhibition of EGFR L858R/T790M mutant (696 to 1022 residues) (unknown origin) extracted from baculovirus infected Sf9 insect cells in presence of ATP by HTRF assay.
Data set [15] concerns the target T1, Epidermal growth factor receptor. Further details: species or system Sf9. The source holds these as a separate data set.

T2 sequence (P00533 whole entry, the tested form may be a part): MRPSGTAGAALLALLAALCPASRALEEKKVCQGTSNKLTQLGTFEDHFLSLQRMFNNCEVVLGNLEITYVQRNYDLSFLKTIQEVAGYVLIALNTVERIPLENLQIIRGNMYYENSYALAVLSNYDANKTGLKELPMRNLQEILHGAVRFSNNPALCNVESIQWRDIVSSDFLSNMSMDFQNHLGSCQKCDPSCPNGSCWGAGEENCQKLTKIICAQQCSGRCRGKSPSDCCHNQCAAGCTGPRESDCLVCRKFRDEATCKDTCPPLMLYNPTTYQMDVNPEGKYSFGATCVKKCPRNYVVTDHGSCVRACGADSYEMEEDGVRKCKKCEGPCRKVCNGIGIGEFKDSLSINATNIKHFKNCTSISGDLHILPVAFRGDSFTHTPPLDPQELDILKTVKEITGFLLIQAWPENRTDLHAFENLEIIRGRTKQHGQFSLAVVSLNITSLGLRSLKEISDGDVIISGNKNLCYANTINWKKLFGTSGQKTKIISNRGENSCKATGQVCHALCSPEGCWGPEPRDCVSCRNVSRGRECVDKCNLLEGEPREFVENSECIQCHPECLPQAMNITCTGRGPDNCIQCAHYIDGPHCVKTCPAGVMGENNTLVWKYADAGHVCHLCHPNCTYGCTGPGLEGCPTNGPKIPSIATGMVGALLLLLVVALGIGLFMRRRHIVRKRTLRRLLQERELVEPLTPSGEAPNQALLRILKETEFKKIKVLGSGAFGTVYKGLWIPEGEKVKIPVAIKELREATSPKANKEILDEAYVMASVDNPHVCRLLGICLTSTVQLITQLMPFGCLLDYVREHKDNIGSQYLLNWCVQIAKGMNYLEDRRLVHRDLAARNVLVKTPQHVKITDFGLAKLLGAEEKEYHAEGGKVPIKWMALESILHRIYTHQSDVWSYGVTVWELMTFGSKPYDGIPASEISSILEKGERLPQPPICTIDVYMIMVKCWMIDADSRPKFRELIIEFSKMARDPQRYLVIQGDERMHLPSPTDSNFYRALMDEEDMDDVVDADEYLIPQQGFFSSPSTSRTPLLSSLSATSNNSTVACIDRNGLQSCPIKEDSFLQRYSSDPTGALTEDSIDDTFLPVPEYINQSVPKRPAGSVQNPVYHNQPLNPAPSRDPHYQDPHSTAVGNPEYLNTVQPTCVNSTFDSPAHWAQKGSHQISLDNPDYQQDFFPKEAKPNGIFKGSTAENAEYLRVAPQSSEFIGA
T3 sequence (P00533 25-1210 L858R limits assumed): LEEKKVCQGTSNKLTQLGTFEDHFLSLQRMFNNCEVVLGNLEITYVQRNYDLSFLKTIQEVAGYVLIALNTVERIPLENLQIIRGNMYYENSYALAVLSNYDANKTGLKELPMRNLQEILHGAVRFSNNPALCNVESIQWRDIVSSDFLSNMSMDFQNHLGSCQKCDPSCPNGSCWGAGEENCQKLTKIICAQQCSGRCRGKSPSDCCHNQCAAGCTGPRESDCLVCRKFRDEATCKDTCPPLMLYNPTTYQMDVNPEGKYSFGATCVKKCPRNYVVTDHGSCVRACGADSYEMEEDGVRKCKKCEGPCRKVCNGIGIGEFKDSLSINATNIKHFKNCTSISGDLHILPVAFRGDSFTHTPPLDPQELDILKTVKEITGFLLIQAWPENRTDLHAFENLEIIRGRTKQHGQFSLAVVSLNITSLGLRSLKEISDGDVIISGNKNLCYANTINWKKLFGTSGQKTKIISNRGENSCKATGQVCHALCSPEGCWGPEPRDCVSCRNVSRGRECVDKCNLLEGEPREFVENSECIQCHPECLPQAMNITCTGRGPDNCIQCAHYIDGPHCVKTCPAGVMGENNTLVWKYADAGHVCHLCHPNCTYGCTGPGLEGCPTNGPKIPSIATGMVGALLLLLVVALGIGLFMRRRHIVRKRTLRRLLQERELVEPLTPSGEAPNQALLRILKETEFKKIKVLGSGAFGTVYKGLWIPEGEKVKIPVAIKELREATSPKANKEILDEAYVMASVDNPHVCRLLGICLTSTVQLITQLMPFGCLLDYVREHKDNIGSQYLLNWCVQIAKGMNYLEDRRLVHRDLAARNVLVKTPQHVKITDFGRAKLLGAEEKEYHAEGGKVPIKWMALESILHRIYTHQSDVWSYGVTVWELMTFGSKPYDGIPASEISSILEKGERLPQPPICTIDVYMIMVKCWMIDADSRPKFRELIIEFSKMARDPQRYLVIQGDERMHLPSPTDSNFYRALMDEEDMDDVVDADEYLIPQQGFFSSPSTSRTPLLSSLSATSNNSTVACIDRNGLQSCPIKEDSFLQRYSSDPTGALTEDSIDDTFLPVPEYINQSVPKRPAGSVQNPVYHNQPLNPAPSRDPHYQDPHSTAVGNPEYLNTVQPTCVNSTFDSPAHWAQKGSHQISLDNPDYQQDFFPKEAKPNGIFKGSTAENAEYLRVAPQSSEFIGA

`CCOc1nc(-c2cccc(NC(=O)c3cccc(O)c3CN3Cc4ccccc4C3=O)c2)c(-c2ccnc(NC(C)=O)c2)[nH]1`: the EC50 in the data set on BaF3 [1] is > 10000 nM; with BaF3 [2], > 10000 nM; in the data set with BaF3 [3], > 10 µM; in the data set on BaF3 [4], > 10000 nM.

In the case of `CCc1nc(-c2cccc(NC(=O)c3cccc(O)c3CN3Cc4ccccc4C3=O)c2)c(-c2ccnc(Nc3ccccc3)c2)[nH]1`, the EC50 was > 10 µM with BaF3 [5], 3900 nM in the data set on BaF3 [2], > 10 µM in the data set with BaF3 [3] and > 10000 nM with BaF3 [4].

On to `C=CC(=O)Nc1ccc(OC)c(Nc2cc(-c3[nH]c(CC)nc3-c3cccc(NC(=O)c4cccc(O)c4CN4Cc5ccccc5C4=O)c3)ccn2)c1`, for which the IC50 in data set [6] is 0.91 nM. Besides, the EC50 was 2.1 µM in the data set with BaF3 [5]; 1500 nM in the data set with BaF3 [1]; 300 nM in “cells”; 290 nM in the data set on HCC827; 220 nM in the data set on BaF3 [2]; 0.59 µM with BaF3 [3]. This molecule also registered an EC50 with BaF3 [4] of 1000 nM. The Stability entry in data set [7] was “Stable”. The Drug metabolism result in data set [8] is “metabolite_notdetected”.

For the molecule `CCC(=O)Nc1ccc(OC)c(Nc2cc(-c3[nH]c(SC)nc3-c3cccc(NC(=O)c4cccc(O)c4CN4Cc5ccccc5C4=O)c3)ccn2)c1`, the EC50 with BaF3 [5] was 1.7 µM; in the data set on BaF3 [1], 1800 nM; in the data set with HCC827 it was 270 nM; in the data set on BaF3 [2], 1000 nM; in the data set on BaF3 [3] it was > 10 µM; in the data set with BaF3 [4], 1100 nM.

For the molecule `C=CC(=O)Nc1ccc(OC)c(Nc2cc(-c3[nH]c(SC)nc3-c3cccc(NC(=O)c4ccccc4CN4Cc5ccccc5C4=O)c3)ccn2)c1`, the Ki in [9] is 814 nM; in data set [10] it was 234 nM; in data set [11], 310 nM. In addition, the IC50 in [6] is > 1000 nM. Also, the EC50 in the data set on BaF3 [5] was > 10 µM; in the data set on BaF3 [1] it was 1400 nM; in the data set on BaF3 [2] it was 170 nM; in the data set on BaF3 [3], 0.88 µM; in the data set on BaF3 [4], 1700 nM.

`CS(=O)(=O)CCNCc1ccc(-c2ccc3ncnc(Nc4ccc(OCc5cccc(F)c5)c(Cl)c4)c3c2)o1` [LAPATINIB]: the EC50 in the data set “cells” and in the data set with HCC827 was > 10000 nM each time.

With `CSc1nc(-c2cccc(NC(=O)c3cccc(O)c3CN3Cc4ccccc4C3=O)c2)c(-c2ccnc(Nc3ccc(N4CCNCC4)cc3)c2)[nH]1`, the EC50 is > 10 µM with BaF3 [5]; > 10000 nM in the data set on BaF3 [1]; > 10000 nM in the data set on BaF3 [2]; > 10 µM in the data set with BaF3 [3]; > 10000 nM in the data set on BaF3 [4].

Turning to `CCOc1nc(-c2cccc(NC(=O)c3cccc(O)c3CN3Cc4ccccc4C3=O)c2)c(-c2ccnc(Nc3ccccc3)c2)[nH]1`, the 50% effective concentration (EC50) with BaF3 [1] is > 10000 nM; in the data set with BaF3 [2], 2900 nM; in the data set with BaF3 [3] it was > 10 µM; in the data set on BaF3 [4], > 10000 nM.

With `CCc1nc(-c2cccc(NC(=O)c3cccc(O)c3CN3Cc4ccccc4C3=O)c2)c(-c2ccnc(NC(C)=O)c2)[nH]1`, the EC50 with BaF3 [1] is > 10000 nM; in the data set with BaF3 [2], > 10000 nM; with BaF3 [3], > 10 µM; in the data set with BaF3 [4], > 10000 nM.

The molecule `C=CC(=O)Nc1ccc(OC)c(Nc2cc(-c3[nH]c(SC)nc3-c3cccc(NC(=O)c4c(F)ccc(O)c4CN4Cc5ccccc5C4=O)c3)ccn2)c1` had an IC50 in data set [6] of 1.6 nM. Also, the concentration giving a half-maximal response (EC50) in the data set on BaF3 [5] is > 10 µM; in the data set with BaF3 [1], 1400 nM; in the data set with BaF3 [2], 370 nM; in the data set with BaF3 [3], 1.2 µM; in the data set on BaF3 [4], 1100 nM.

In the case of `C=CC(=O)Nc1ccc(OC)c(Nc2cc(-c3[nH]c(SC)nc3-c3cccc(NC(=O)c4c(F)cccc4CN4Cc5ccccc5C4=O)c3)ccn2)c1`, half-maximal inhibition in [6] (IC50) was put at 340 nM. The EC50 in the data set on BaF3 [5] is > 10 µM; in the data set on BaF3 [1], 530 nM; in the data set with BaF3 [2] it was 180 nM; in the data set on BaF3 [3], 1.1 µM; in the data set on BaF3 [4] it was 720 nM.

`CSc1nc(-c2cccc(NC(=O)c3cccc(O)c3CN3Cc4ccccc4C3=O)c2)c(-c2ccnc(NC(C)=O)c2)[nH]1`: the EC50 in the data set on BaF3 [1] was > 10000 nM; in the data set with BaF3 [2], > 10000 nM; with BaF3 [3], > 10 µM; in the data set on BaF3 [4], > 10000 nM.

Take `CSc1nc(-c2cccc(NC(=O)c3cccc(O)c3CN3Cc4ccccc4C3=O)c2)c(-c2ccnc(Nc3ccccc3)c2)[nH]1`: the EC50 was 4000 nM with BaF3 [1], > 10000 nM in the data set on BaF3 [2], > 10 µM with BaF3 [3] and > 10000 nM in the data set on BaF3 [4].

For the molecule `CSc1nc(-c2cccc(NC(=O)c3ccccc3CN3Cc4ccccc4C3=O)c2)c(-c2ccnc(NC(C)=O)c2)[nH]1`, the IC50 in [12] is > 1000 nM; in data set [13] it was 120 nM; in [14], 460 nM; in data set [15], 450 nM.
